Blank lines part the entries; values can stand above or below the compound they belong to.
Columns and labels:
[1] = target: GluN1/GluN2D receptors (Rattus norvegicus, UniProt P35439+Q62645); assay: Whole-cell patch clamp recordings of GluN1/GluN2D receptors expressed in HEK293 cells; type: cell-based
[2] = Plasma stability, rat; type: in vitro ADME; details: two-hour time-course
Experimental: (§1) Three analogs, (58) 997-33, (26)997-23 and (64) 997-57 were evaluated for plasma stability as well as aqueous solubility. […] The aqueous solubility of compounds (26)997-23 and (58) 997-33 was evaluated in oocyte recording buffer using nephelometry. […] In order to assess the potential BBB penetration, compounds (26)997-23 and (64)997-57 were selected for evaluation in the MDR1-MDCK permeability assay (FIG. 19). […] The same compounds were also evaluated for metabolic stability using human liver microsomes.

[3] = Aqueous solubility in oocyte recording buffer by nephelometry; type: physicochemical
Experimental: as §1

[4] = Plasma stability, human; type: in vitro ADME; details: two-hour time-course
Experimental: as §1

[5] = target: T1, kappa-opioid (Homo sapiens, UniProt P41145); assay: NIMH PDSP Ki determination, kappa-opioid; type: binding
T1 construct: NIMH PDSP (screening programme)
T1 sequence (P41145 whole entry): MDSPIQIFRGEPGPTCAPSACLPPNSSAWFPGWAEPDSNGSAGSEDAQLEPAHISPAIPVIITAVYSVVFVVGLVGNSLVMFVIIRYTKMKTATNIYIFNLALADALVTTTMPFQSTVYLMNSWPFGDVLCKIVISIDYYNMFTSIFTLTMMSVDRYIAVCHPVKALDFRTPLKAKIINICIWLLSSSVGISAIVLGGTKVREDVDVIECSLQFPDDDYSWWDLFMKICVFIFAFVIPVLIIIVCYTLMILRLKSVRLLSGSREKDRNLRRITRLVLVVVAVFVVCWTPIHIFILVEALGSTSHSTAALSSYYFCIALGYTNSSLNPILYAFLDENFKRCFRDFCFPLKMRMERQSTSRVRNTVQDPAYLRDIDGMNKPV
Experimental: (§2) The actions of these two compounds at 5 μM on were tested 42 different ion channels, G-protein coupled receptors, and transporters via the National Institutes of Mental Health (NIMH) psychoactive drug screening program (PDSP).

[6] = Plasma stability, mouse; type: in vitro ADME; details: two-hour time-course
Experimental: as §1

[7] = target: GluN1/GluN2D (Rattus norvegicus, UniProt Q62645); assay: Inhibition of GluN1/GluN2D responses: dependence on agonist concentration and on voltage; type: cell-based; details: 1 μM compound
GluN1/GluN2D, sequence (Q62645 28-1323, other chains not shown): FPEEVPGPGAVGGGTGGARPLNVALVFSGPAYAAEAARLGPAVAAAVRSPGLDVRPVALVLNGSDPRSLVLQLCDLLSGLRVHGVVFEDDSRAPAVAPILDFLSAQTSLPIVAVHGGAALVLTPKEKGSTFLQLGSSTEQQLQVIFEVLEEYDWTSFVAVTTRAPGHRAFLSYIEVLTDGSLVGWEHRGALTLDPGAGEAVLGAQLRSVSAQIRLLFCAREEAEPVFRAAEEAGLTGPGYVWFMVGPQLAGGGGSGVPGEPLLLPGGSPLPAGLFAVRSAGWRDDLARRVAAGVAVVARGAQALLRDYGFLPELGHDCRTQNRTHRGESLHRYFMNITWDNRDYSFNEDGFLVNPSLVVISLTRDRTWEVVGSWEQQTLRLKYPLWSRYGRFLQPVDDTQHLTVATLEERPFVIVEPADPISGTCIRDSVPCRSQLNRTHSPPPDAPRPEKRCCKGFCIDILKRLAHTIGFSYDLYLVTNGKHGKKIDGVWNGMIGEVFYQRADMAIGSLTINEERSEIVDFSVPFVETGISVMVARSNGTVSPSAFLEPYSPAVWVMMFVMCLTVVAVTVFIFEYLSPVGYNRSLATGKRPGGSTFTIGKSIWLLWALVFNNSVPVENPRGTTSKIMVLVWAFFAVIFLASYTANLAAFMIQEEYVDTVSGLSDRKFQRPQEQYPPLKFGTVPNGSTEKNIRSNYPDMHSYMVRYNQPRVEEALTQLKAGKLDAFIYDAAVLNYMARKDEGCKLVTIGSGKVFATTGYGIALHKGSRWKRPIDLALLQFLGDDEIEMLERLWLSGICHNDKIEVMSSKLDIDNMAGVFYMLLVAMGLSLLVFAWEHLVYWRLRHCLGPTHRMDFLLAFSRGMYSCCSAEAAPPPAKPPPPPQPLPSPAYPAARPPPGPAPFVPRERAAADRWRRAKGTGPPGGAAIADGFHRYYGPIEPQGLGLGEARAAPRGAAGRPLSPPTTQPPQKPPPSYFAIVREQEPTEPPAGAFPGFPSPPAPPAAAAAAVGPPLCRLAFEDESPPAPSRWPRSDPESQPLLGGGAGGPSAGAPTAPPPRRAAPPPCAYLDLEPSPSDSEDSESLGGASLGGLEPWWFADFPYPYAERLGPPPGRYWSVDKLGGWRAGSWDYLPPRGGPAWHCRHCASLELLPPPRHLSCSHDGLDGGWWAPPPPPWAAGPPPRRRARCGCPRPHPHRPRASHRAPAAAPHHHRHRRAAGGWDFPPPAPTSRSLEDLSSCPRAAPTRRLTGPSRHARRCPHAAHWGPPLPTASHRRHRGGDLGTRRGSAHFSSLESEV
Text: Although it is not intended that embodiments of this disclosure be limited by any mechanism, Acker et al. report a mechanism for noncompetitive inhibition by GluN2C/D N-methyl-d-aspartate receptor subunit-selective modulators. Molecular Pharmacology 2011, 80, 782-795.

[8] = target: T2, 5-HT6 (Homo sapiens, UniProt P50406); assay: NIMH PDSP Ki determination, 5-HT6; type: binding
T2 construct: NIMH PDSP (screening programme)
T2 sequence (P50406 whole entry, species assumed): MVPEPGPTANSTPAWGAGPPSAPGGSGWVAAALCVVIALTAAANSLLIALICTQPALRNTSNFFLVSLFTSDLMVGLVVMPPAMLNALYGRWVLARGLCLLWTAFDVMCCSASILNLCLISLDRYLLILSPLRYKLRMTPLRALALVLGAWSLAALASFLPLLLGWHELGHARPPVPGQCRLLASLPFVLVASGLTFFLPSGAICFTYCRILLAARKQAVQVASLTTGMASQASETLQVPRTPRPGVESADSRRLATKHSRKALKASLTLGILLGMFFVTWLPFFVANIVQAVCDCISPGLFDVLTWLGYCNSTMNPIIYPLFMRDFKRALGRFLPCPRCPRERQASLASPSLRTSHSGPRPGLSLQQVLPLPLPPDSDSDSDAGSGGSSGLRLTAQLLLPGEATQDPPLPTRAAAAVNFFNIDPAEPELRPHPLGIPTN
Experimental: as §2

[9] = target: T3, 5-HT1E (Homo sapiens, UniProt P28566); assay: NIMH PDSP Ki determination, 5-HT1E; type: binding
T3 construct: NIMH PDSP (screening programme)
T3 sequence (P28566 whole entry, species assumed): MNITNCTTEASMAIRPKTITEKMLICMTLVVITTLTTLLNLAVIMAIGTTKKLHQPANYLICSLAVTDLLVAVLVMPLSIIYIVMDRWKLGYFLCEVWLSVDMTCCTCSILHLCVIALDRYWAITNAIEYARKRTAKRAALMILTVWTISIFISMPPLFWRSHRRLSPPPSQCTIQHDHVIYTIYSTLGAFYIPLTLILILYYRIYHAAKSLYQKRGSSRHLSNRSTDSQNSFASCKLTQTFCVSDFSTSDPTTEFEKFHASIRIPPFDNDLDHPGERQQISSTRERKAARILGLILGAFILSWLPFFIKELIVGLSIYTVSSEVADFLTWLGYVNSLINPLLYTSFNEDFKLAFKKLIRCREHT
Experimental: as §2

[10] = target: T4, mu-opioid (Homo sapiens, UniProt P35372); assay: NIMH PDSP Ki determination, mu-opioid; type: binding
T4 construct: NIMH PDSP (screening programme)
T4 sequence (P35372 whole entry): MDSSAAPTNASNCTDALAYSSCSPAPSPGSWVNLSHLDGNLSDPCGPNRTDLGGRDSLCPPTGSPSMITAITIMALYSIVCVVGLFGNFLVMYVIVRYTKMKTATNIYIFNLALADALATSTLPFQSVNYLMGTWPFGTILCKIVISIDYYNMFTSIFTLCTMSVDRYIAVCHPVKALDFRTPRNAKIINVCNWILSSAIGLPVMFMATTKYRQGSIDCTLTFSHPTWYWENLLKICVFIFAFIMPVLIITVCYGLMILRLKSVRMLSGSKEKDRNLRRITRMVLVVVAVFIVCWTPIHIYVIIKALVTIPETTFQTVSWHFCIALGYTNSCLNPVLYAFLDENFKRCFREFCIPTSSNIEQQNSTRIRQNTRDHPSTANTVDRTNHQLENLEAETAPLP
Experimental: as §2

[11] = system: 42 different ion channels, G-protein coupled receptors, and transporters; assay: NIMH PDSP primary binding assay; details: 5 μM compound
Experimental: as §2

[12] = target: T5, GluN2D-containing receptors (Rattus norvegicus, UniProt Q62645); assay: Two-electrode voltage-clamp inhibition of GluN2D-containing NMDA receptors in Xenopus laevis oocytes; type: cell-based
T5 construct: expressed in transfected cells; host or cells: Xenopus laevis oocytes
T5 sequence (Q62645 28-1323, other chains not shown): as the sequence (Q62645 28-1323, other chains not shown) above
Experimental: (§3) IC50 values were obtained by fitting the Hill equation to the average composite concentration-effect curves.
(§4) Xenopus laevis oocytes were isolated and maintained as described in Hansen & Traynelis, J Neurosci 2011, 31, 3650-3661. Oocytes were placed in a perfusion chamber with recording solution comprised of (in mM) 90 NaCl, 1 KCl, 0.5 BaCl2, 0.005 EDTA and 10 HEPES, pH adjusted to 7.4 with NaOH at 23° C. The glass electrodes used had tip resistance of 0.5-2.0 MΩ and were filled with 0.3-3.0 M KCl. Compounds were made as 20 mM stock solutions in DMSO and diluted to final concentrations in recording solution (final DMSO was 0.1-0.05% vol/vol). The current recordings were performed using a Warner OC-725B or C amplifier at a holding potential of −40 mV.

[13] = target: T6, GluN2C-containing receptors (Rattus norvegicus, UniProt Q00961); assay: Two-electrode voltage-clamp inhibition of GluN2C-containing NMDA receptors in Xenopus laevis oocytes; type: cell-based
T6 construct: expressed in transfected cells; host or cells: Xenopus laevis oocytes
T6 sequence (Q00961 20-1237, other chains not shown): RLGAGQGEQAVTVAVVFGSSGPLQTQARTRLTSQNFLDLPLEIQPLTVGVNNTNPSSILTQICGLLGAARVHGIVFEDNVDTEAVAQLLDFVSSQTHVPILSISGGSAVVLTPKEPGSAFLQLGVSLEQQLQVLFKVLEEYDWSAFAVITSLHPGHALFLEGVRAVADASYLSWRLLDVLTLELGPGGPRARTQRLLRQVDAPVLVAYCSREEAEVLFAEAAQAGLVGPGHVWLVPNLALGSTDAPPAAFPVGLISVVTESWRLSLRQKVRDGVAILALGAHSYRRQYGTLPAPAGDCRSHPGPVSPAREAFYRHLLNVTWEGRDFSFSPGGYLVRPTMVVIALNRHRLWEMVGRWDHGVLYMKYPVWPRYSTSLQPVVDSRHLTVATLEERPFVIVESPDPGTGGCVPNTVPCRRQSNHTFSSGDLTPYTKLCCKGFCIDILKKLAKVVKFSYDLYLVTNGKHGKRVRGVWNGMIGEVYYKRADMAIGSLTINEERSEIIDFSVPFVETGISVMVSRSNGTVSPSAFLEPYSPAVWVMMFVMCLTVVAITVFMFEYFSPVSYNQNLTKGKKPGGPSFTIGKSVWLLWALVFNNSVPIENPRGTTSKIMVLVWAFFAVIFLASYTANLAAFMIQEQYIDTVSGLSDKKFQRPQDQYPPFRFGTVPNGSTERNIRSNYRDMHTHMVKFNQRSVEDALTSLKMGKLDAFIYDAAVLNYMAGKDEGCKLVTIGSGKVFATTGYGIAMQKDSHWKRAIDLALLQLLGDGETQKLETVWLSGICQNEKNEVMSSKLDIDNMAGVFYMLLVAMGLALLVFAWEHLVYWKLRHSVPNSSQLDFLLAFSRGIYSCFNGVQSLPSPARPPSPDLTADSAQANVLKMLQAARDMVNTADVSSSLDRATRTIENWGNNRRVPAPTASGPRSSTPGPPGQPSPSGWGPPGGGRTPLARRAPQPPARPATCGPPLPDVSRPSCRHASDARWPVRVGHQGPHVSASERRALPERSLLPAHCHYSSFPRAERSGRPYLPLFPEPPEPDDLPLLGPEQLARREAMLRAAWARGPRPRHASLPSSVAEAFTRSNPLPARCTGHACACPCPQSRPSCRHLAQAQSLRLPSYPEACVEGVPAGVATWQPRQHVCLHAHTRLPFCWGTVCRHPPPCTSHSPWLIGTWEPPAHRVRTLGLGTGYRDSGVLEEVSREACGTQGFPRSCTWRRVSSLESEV
Experimental: as §3, §4

[14] = target: T7, H2 (Homo sapiens, UniProt P25021); assay: NIMH PDSP Ki determination, H2; type: binding
T7 construct: NIMH PDSP (screening programme)
T7 sequence (P25021 whole entry): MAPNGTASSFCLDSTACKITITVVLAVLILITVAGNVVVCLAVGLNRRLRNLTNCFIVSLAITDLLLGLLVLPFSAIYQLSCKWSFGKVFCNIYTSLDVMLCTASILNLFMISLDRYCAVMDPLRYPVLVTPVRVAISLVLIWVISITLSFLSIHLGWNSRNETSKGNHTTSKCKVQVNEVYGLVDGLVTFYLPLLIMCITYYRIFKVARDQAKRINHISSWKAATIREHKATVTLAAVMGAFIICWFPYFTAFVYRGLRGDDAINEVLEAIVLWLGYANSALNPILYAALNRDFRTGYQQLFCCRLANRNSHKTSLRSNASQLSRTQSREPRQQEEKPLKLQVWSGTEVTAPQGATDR
Experimental: as §2

[15] = system: MDR1-MDCK cell monolayers; assay: MDR1-MDCK permeability assay; type: in vitro ADME; details: MDR1-MDCK, 5 μM, 120 minutes
Experimental: The Papp and efflux ratio were calculated as described in the Methods. […] See Wang et al., International Journal of Pharmaceutics, 2005, 288, 349-359.
Cell monolayers were grown to confluence on collagen-coated, microporous, polycarbonate membranes in 12-well Costar Transwell® plates. The permeability assay buffer was Hanks Balanced Salt Solution containing 10 mM HEPES and 15 mM glucose at pH 7.4. The buffer in the receiver chamber also contained 1% bovine serum albumin. The dosing solution concentration in the assay buffer was 5 μM for each compound tested. The cell monolayers were dosed on the apical side (A-to-B) or basolateral side (B-to-A) and incubated at 37° C. with 5% CO2 in a humidified incubator. Samples were taken from the donor and receiver chambers at 120 minutes. Each determination was performed in duplicate. The co-dosed lucifer yellow flux was also measured for each monolayer to ensure no damage was inflicted to the cell monolayers during the flux period. All samples were assayed by LC-MS/MS using electrospray ionization. The apparent permeability (Papp) and percent recovery were calculated as follows. […] Human Liver Microsomal Stability

[16] = Human liver microsomal stability; type: in vitro ADME; details: 60 minute assay
Experimental: Human liver microsomes were obtained from XenoTech. The reaction mixture was prepared with 0.5 mg/mL human liver microsomes, 100 mM potassium phosphate (pH 7.4), 5 mM magnesium chloride, 1 μM test compound. The reaction mixture was incubated in a shaking water bath at 37° C. for 3 minutes prior to the addition of NADPH (1 mM). Testosterone was run simultaneously in a separate vessel as a control. 100 μl aliquots were taken at 0, 10, 20, 30 and 60 minutes for both test compound and testosterone. The aliquots were combined immediately with 400 μl of ice cold 50/50 ACN/dH2O containing 0.1% formic acid and internal standard to terminate the reaction. The samples were then mixed and centrifuged to precipitate microsomal proteins. All samples were assayed by LC-MS/MS using electrospray ionization and multiple reaction monitoring and the peak area responses to internal standard of the compounds at each time point was compared to the peak area response at time 0 to determine the percent compound remaining. The human liver microsomal stability assays were performed by Absorption Systems.

[17] = system: GluN2D receptor mutants Q801Y, L705F and A752V; assay: Inhibition of mutant GluN2D receptors (Q801Y, L705F and A752V); type: cell-based; details: racemic mixture, A752V versus wild type
Experimental: Mutations to the wild type GluN2D receptor (Q801Y, L705F and A752V) were described to decrease sensitivity of the GluN2D receptor to blockade by either DQP-1105 and/or QNZ-46 in the membrane proximal region of the bilobed ligand binding domain encoded by the S2 region of the polypeptide chain were evaluated. See Acker et al. and Hansen & Traynelis, J Neurosci, 2011, 31, 3650-3661.

GluN1/GluN2D receptors, sequence (Q62645 28-1323, other chains not shown): as the sequence (Q62645 28-1323, other chains not shown) above

IC50 ([1]; HEK293 cells, n=4, read-out: IC50 for inhibition of the response under whole-cell voltage clamp): 990 nM
Kd ([1]; calculated from kOFF and kON, read-out: dissociation constant KD): 990 nM
plasma stability [2]: minimal degradation
solubility [3]: > 80 µM
plasma stability [4]: minimal degradation
Ki [5]: > 10000 nM
plasma stability [6]: minimal degradation
GluN1/GluN2D response remaining ([7]; 30 μM glutamate and glycine, n=6): 4.1 ± 0.58 % of control
GluN1/GluN2D response remaining ([7]; 3 mM glutamate and glycine, n=6): 3.1 ± 0.50 % of control
GluN1/GluN2D response remaining ([7]; +30 mV, n=8): 4.8+1.2 % of control
GluN1/GluN2D response remaining ([7]; −40 mV, n=8): 4.9 ± 1.3 % of control
Ki [8]: > 10000 nM
Ki [9]: > 10000 nM
Ki [10]: > 10000 nM
effect on receptors and transporters in primary binding assay [11]: minimal effect
SMILES: O=C(O)/C=C/C(=O)N1N=C(c2c(-c3ccc(Br)cc3)c3ccccc3[nH]c2=O)CC1c1ccc(Cl)cc1 (racemic) [Compound 997-33, (E)-4-(3-(4-(4-Bromophenyl)-2-oxo-1,2-dihydroquinolin-3-yl)-5-(4-chlorophenyl)-4,5-dihydro-1H-pyrazol-1-yl)-4-oxobut-2-enoic acid]

selectivity for GluN2D-containing over GluN2A-containing receptors [12]: 33 fold
selectivity for GluN2D-containing over GluN2B-containing receptors [12]: 67 fold
IC50 ([12]; GluN2D-containing receptors, read-out: inhibition IC50 for GluN2D): 390 nM
IC50 [13]: 710 nM
SMILES: O=C(O)CCC(=O)N1N=C(c2c(-c3ccc(Br)cc3)c3ccccc3[nH]c2=O)CC1c1ccc(Br)cc1 (stereo not drawn) [Compound 997-7, 4-(5-(4-Bromophenyl)-3-(4-(4-bromophenyl)-2-oxo-1,2-dihydroquinolin-3-yl)-4,5-dihydro-1H-pyrazol-1-yl)-4-oxobutanoic acid]

Ki [14]: > 10000 nM
plasma stability [2]: minimal degradation
solubility [3]: > 80 µM
plasma stability [4]: minimal degradation
Papp A-B [15]: 0.47 ×10⁻⁶ cm/s
Ki [5]: > 10000 nM
degradation in human liver microsomes, in words [16]: minimal degradation
plasma stability [6]: minimal degradation
Ki [8]: > 10000 nM
effect on receptors and transporters in primary binding assay [11]: minimal effect
SMILES: O=C(O)CCC(=O)N1N=C(c2c(-c3ccc(Cl)cc3)c3ccccc3[nH]c2=O)CC1c1ccc(Cl)cc1 (racemic) [Compound 997-23, 4-(5-(4-Chlorophenyl)-3-(4-(4-chlorophenyl)-2-oxo-1,2-dihydroquinolin-3-yl)-4,5-dihydro-1H-pyrazol-1-yl)-4-oxobutanoic acid]
effect of GluN2D mutations on degree of inhibition [17]: significantly reduced the degree of inhibition

— patent US12312328B2, “Pyrazoline dihydroquinolones, pharmaceutical compositions, and uses” (Emory University, priority 2013, dated 2025)
